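Briefly, cells in 96-well plates were exposed to five compound concentrations for 48 h, and endpoints were estimated by linear interpolation. Abbreviation: GI50, concentration required for 50% inhibition of growth. TGI is the concentration that stops growth completely.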 *1 amine or outer side, *2 acyl side, *3 side chain or, on linkers, in order; H or OH if unused. Where a SMILES comes first, the peptide text is derived from it. Bridges are numbered along the chain shown (N, C = ends). [ ]: non-standard residue; d: D form. The star is where a group is joined. Phe(3,5-F2) = N[C@@H](Cc1cc(F)cc(F)c1)C(=O)O; Pro(4R-Me) = C[C@H]1CN[C@H](C(=O)O)C1; aThr = C[C@H](O)[C@H](N)C(=O)O; Pip = O=C(O)[C@@H]1CCCCN1; X10 = Fc1cc(C2CC2)ccc1N*; CO = O=C([*:1])[*:2]
Experiments:
Assay in all cases: NCI-60 cell line screen, 48 h
[1] = tested on: RXF 393 renal
[2] = tested on: SW-620 colon
[3] = tested on: NCI-H226 lung
[4] = tested on: SK-MEL-5 melanoma
[5] = tested on: SNB-75 CNS
[6] = tested on: HOP-62 NSCLC
[7] = tested on: HCT-116 colon
[8] = tested on: SF-295 CNS
[9] = tested on: ACHN renal
[10] = tested on: RPMI-8226 leukemia

SMILES | TGI [1] [µM] | TGI [2] [µM] | TGI [3] [µM] | TGI [4] [µM] | TGI [5] [µM] | TGI [6] [µM] | TGI [7] [µM] | TGI [8] [µM] | TGI [9] [µM] | GI50 [1] [µM] | GI50 [2] [µM] | GI50 [3] [µM] | GI50 [4] [µM] | GI50 [5] [µM] | GI50 [6] [µM] | GI50 [7] [µM] | GI50 [8] [µM] | GI50 [9] [µM] | GI50 [10] [µM] | TGI [10] [µM]
Fc1ccc(NC(=S)SCc2ccc3c(c2)OCO3)cc1F | 32.2 | > 100 | > 100 | 29.5 | 66.8 | > 100 | > 100 | > 100 | 64.4 | – | – | – | – | – | – | – | – | – | – | –
CN1CCCCC1CCN1c2ccccc2Sc2ccc(Cl)cc21 (stereo not given) | 8.47 | 10.1 | 32.1 | 3.25 | 6.19 | 24.2 | 6.72 | 13.5 | 12.9 | 3.18 | 2.87 | 12.9 | 1.7 | 1.54 | 10.1 | 2.57 | 3.32 | 3.3 | 3.17 | 9.29
C[C@@H]1C[C@H]2C(=O)O[C@@H](C)[C@H](NC(=O)[C@H](Cc3cc(F)cc(F)c3)NC(=O)Nc3ccc(C4CC4)cc3F)C(=O)N3CCC[C@H]3C(=O)N3CCCC[C@H]3C(=O)N[C@@H](C)C(=O)N2C1 ({X10-CO}-[Phe(3,5-F2)][aThr]P[Pip]A[Pro(4R-Me)]; ester 2-C) | 3.99 | > 100 | 4.35 | 1.24 | 49.9 | > 48.2 | 2.16 | 1.57 | 8.12 | 0.233 | 0.0534 | 0.0524 | 0.0461 | 0.0485 | 0.0542 | 0.0414 | 0.0438 | 0.0984 | 0.0287 | 0.878
O=C1NC(=NCCc2cccc(F)c2)S/C1=C\c1ccc2ncccc2c1 | > 25 | > 25 | > 25 | > 25 | > 21.9 | > 25 | > 25 | > 25 | > 25 | 4.4 | 0.819 | > 12.9 | 3.41 | 3.79 | 2.15 | 1.3 | 2.56 | 10.2 | 1.73 | > 25
CNC(=S)OCCC(C)CCCC(C)C (stereo not given) | 30.3 | 30.7 | – | 31.6 | 40.6 | 34.1 | 30.7 | 36 | 32.8 | – | – | – | – | – | – | – | – | – | – | 26.8
CCOC(=O)CCC1(C(=O)OCC)CCCCC1=O (stereo not given) | > 100 | > 100 | – | > 100 | > 100 | > 100 | > 100 | > 100 | > 100 | – | – | – | – | – | – | – | – | – | – | > 100
COc1ccc2c(c1)sc1nc(-c3ccccc3)c(-c3cccc4ccccc34)n12 | 1.29 | > 100 | 5.28 | 0.856 | > 100 | – | > 100 | – | > 100 | 0.249 | 0.346 | 0.604 | 0.233 | 0.386 | 0.538 | 0.615 | 0.415 | 0.76 | 0.99 | 27.4

Source: PubChem BioAssay (NCI)
